The record followed here is article PMC3756492 (Journal of medicinal chemistry, 2010).

The structures appear in SMILES notation.

Data set [1] addresses DAT (Macaca fascicularis, UniProt Q9GJT6). Kind of data set: MicroPET imaging in anesthetized cynomolgus monkeys. Format: in vivo. The settings on record: anesthetized cynomolgus monkey.
Data set [2] has as its system DAT. Kind of data set: HRRT PET imaging in an awake rhesus monkey. Format: in vivo. The settings on record: HRRT PET images.

Chain of DAT (Macaca fascicularis, UniProt Q9GJT6) (Q9GJT6 whole entry): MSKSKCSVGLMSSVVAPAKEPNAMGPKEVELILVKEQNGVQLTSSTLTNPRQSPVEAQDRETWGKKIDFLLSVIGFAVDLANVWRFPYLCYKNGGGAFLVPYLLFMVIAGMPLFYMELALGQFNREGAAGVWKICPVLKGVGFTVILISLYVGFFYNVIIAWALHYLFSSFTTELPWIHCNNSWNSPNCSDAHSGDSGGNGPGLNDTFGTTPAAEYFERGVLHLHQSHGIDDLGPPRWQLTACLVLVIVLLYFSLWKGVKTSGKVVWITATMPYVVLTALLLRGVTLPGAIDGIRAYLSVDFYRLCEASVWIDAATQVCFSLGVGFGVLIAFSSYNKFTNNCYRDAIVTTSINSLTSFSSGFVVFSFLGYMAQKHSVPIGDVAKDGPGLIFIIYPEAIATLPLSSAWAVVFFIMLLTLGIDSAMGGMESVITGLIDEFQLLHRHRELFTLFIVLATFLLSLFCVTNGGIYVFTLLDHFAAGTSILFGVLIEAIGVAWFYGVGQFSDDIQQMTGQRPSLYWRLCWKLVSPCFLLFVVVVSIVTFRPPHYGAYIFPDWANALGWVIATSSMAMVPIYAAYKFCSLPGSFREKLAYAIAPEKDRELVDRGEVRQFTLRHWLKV

Consider `COC(=O)C1C(c2ccc(F)cc2)CC2CCC1N2C/C=C/C[18F]` (stereo not drawn) [[^18F]9, A-((E)-4-[^18F]fluorobut-2-en-1-yl)-2β-carbomethoxy-3β-(4′-fluorophenyl)nortropane], for which, on DAT [1] (19 (RTI-113•HCl) 0.3 mg/kg at 90 min post-injection), the “Displacement of radiotracer in chase study” value is “complete displacement”. Further, at DAT [1] (microPET baseline), the “Time to peak uptake in the putamen” value is on record as at most 20 min and the “Time to peak uptake in the substantia nigra” value is on record as at most 10 min. For the same compound, the “Defluorination (radioactivity in the skull)” value at DAT [1] (microPET images) was “low degree of defluorination”. The “Defluorination (visualization of the skull)” value in the data set with DAT [2] is recorded as “some degree of defluorination”.
